The nature of data set [1]: Cytotoxicity against human L02 cells assessed as inhibition of cell growth incubated for 24 hrs by MTT assay. Type of data set: toxicity, cell-based. (In general: Tetrazolium dyes change colour on reduction, which living cells bring about.)
For data set [2], the system named is Cell membrane. Briefly: Induction of cell membrane damage in methicillin-resistant Staphylococcus aureus USA300 assessed as disruption of cell membrane at 8 ug/ml measured after 0.5 hrs by SEM analysis. It is filed as cell membranes. As to conditions: dose 8.0 µg/ml.
Data set [3] relates to Cell membrane. Briefly: Induction of cell membrane damage in methicillin-resistant Staphylococcus aureus USA300 assessed as appearance of wrinkles in cell surface at 8 ug/ml measured after 0.5 hrs by SEM analysis. Type of data set: cell membranes. As to conditions: dose 8.0 µg/ml.
In another data set the test system is HEK-293T. Briefly: Cytotoxicity against HEK293T cells assessed as effect on cell viability at 35 ug/ml incubated for 24 hrs by MTT assay. As to conditions: human, dose 35 µg/ml. Type of data set: toxicity, cell-based.
The test system of data set [4] is Staphylococcus aureus. Nature of the data set: Antibacterial activity against methicillin-resistant Staphylococcus aureus 330041 assessed as inhibition of bacterial growth incubated for 16 to 18 hrs by CLSI based two-fold serial dilution method. It is filed as functional. As to conditions: time 16-18 hrs.
Data set [5] deals with Staphylococcus aureus. Nature of the data set: Bactericidal against methicillin-resistant Staphylococcus aureus USA300 assessed as total eradication of bacterial colonies at 1 to 2 times MIC measured upto 7 hrs by time kill assay. It is filed as functional, organism-based.
The test system of data set [6] is Staphylococcus aureus. Briefly: Antibacterial activity against methicillin-resistant Staphylococcus aureus 3392 assessed as inhibition of bacterial growth incubated for 16 to 18 hrs by CLSI based two-fold serial dilution method. Type of data set: functional. The conditions noted are these: time 16-18 hrs.
Data set [7] deals with Pseudomonas aeruginosa. Briefly: Antibacterial activity against Pseudomonas aeruginosa 408 assessed as inhibition of bacterial growth incubated for 16 to 18 hrs by CLSI based two-fold serial dilution method. It is filed as functional. As to conditions: time 16-18 hrs.
For data set [8], the system named is Staphylococcus aureus. Nature of the data set: Antibacterial activity against methicillin-resistant Staphylococcus aureus USA300 assessed as inhibition of bacterial growth incubated for 16 to 18 hrs by CLSI based two-fold serial dilution method. It is filed as functional. The conditions noted are these: time 16-18 hrs.
Data set [9] has as its system Staphylococcus aureus. Briefly: Antibacterial activity against methicillin-resistant Staphylococcus aureus 3390 assessed as inhibition of bacterial growth incubated for 16 to 18 hrs by CLSI based two-fold serial dilution method. As to conditions: time 16-18 hrs. It is filed as functional.
The subject of data set [10] is Staphylococcus aureus. Nature of the data set: Resistance development in methicillin-resistant Staphylococcus aureus USA300 assessed as increase in MIC measured after 15 passages. Type of data set: functional, organism-based.
In data set [11] the test system is Erythrocyte. Nature of the data set: Hemolytic activity in sheep RBC at 20 ug/ml incubated for 1 hr by absorbance based analysis. The conditions noted are these: dose 20 µg/ml. It is filed as toxicity, cell-based, Ovis aries.
The nature of data set [12]: Toxicity in ICR mouse infected with methicillin-resistant Staphylococcus aureus USA300 assessed as reduction in body weight at 20 mg/kg, sc administered as dual dose and measured after 3 days. It is filed as organism-based. The conditions noted are these: in vivo, 72 h, time 3 day.
The subject of data set [13] is Cell membrane. Nature of the data set: Disruption of cell membrane integrity in methicillin-resistant Staphylococcus aureus USA300 assessed as increase in fluorescence intensity measured after 0 to 100 mins by SYTOX Green staining based analysis. As to conditions: dose 2-32 µg/ml, time 0-100 min. It is filed as cell membranes.
Data set [14] concerns Staphylococcus aureus. Briefly: Bactericidal against methicillin-resistant Staphylococcus aureus USA300 assessed as elimination of bacterial colonies at 16 ug/ml measured within 3 hrs by time kill assay relative to control. As to conditions: dose 16 µg/ml. It is filed as functional.
Data set [15] has as its system Pseudomonas aeruginosa. Nature of the data set: Antibacterial activity against Pseudomonas aeruginosa 535 assessed as inhibition of bacterial growth incubated for 16 to 18 hrs by CLSI based two-fold serial dilution method. The conditions noted are these: time 16-18 hrs. It is filed as functional.
For data set [16], the system named is Staphylococcus aureus. Nature of the data set: Antibacterial activity against methicillin-resistant Staphylococcus aureus USA300 infected in ICR mouse assessed as reduction in bacterial load in infected thigh at 20 mg/kg, sc pre-infected with bacteria for 2 hrs followed by compound administration as dual dose and measured after 3 days. It is filed as functional, organism-based. The conditions noted are these: time 3.0 day.

Data set [17] concerns Acinetobacter baumannii. Briefly: Antibacterial activity against Acinetobacter baumannii 1309 assessed as inhibition of bacterial growth incubated for 16 to 18 hrs by CLSI based two-fold serial dilution method. Type of data set: functional. The conditions noted are these: time 16-18 hrs.
Data set [18] relates to Acinetobacter baumannii. Briefly: Antibacterial activity against Acinetobacter baumannii 1310 assessed as inhibition of bacterial growth incubated for 16 to 18 hrs by CLSI based two-fold serial dilution method. Type of data set: functional. The conditions noted are these: time 16-18 hrs.
For data set [19], the system named is Staphylococcus aureus. Nature of the data set: Bactericidal against methicillin-resistant Staphylococcus aureus USA300 assessed as reduction in bacterial colonies at 32 ug/ml measured upto 7 hrs by time kill assay. It is filed as functional, organism-based. As to conditions: dose 32.0 µg/ml.
In data set [20] the test system is Staphylococcus aureus. Briefly: Antibacterial activity against methicillin-resistant Staphylococcus aureus USA300 infected in ICR mouse assessed as reduction in bacterial load in infected thigh at 10 mg/kg, sc pre-infected with bacteria for 2 hrs followed by compound administration as dual dose and measured after 3 days. It is filed as functional, organism-based. As to conditions: time 3.0 day.

The test system of data set [21] is Erythrocyte. Briefly: Hemolytic activity in sheep RBC at 30 ug/ml incubated for 1 hr by absorbance based analysis. The conditions noted are these: dose 30 µg/ml. Type of data set: toxicity, cell-based, Ovis aries.
Data set [22] deals with Cell membrane. Briefly: Disruption of cell membrane integrity in methicillin-resistant Staphylococcus aureus USA300 assessed as increase in fluorescence intensity measured after 0 to 30 mins by SYTOX Green staining based analysis. It is filed as cell membranes. As to conditions: dose 2-16 µg/ml, time 0-30 min.
The nature of data set [23]: Toxicity in ICR mouse infected with methicillin-resistant Staphylococcus aureus USA300 assessed as reduction in body weight at 10 mg/kg, sc administered as dual dose and measured after 3 days. Type of data set: organism-based. As to conditions: in vivo, 72 h, time 3 day.
Data set [24] relates to Cell membrane. Nature of the data set: Induction of cell membrane damage in methicillin-resistant Staphylococcus aureus USA300 assessed as disruption of cell membrane at 16 ug/ml measured after 0.5 hrs by SEM analysis. It is filed as cell membranes. The conditions noted are these: dose 16.0 µg/ml.
Data set [25] deals with Cell membrane. Nature of the data set: Induction of cell membrane damage in methicillin-resistant Staphylococcus aureus USA300 assessed as appearance of wrinkles in cell surface at 16 ug/ml measured after 0.5 hrs by SEM analysis. Type of data set: cell membranes. As to conditions: dose 16.0 µg/ml.
Data set [26] concerns Staphylococcus aureus. Briefly: Bactericidal against methicillin-resistant Staphylococcus aureus USA300 assessed as elimination of bacterial colonies at 16 ug/ml measured within 5 hrs by time kill assay relative to control. It is filed as functional. The conditions noted are these: dose 16 µg/ml.

Active and inactive are the calls of the source. No cut-off for these calls is given here.

On to `Br.O=C(CCCCCCCCC[P+](c1ccccc1)(c1ccccc1)c1ccccc1)OC[C@H](NC(=O)C(Cl)Cl)[C@H](O)c1ccc([N+](=O)[O-])cc1`, for which the IC50 at 24 h in data set [1] is over 32 µg/mL. The outcome in the data set with Cell membrane [2], in the data set with Cell membrane [3], with Staphylococcus aureus [16] and in the data set on Staphylococcus aureus [19] was Active. The Activity result was “Non-Toxic” in the data set with HEK-293T; “Non-Toxic” in the data set with Erythrocyte [11]; “Non-Toxic” in [12]; “Dose-Dependent Effect” with Cell membrane [13]; 100% in the data set with Staphylococcus aureus [14]. In addition, the MIC is 1 µg/mL in the data set with Staphylococcus aureus [4]; 1 µg/mL in the data set on Staphylococcus aureus [6]; over 64 µg/mL in the data set on Pseudomonas aeruginosa [7]; 1 µg/mL in the data set on Staphylococcus aureus [8]; 1 µg/mL in the data set on Staphylococcus aureus [9]; over 64 µg/mL with Pseudomonas aeruginosa [15]. The MIC in the data set on Acinetobacter baumannii [17] was over 64 µg/mL; in the data set on Acinetobacter baumannii [18], 32 µg/mL. Further, the result with Staphylococcus aureus [5] and in the data set on Staphylococcus aureus [10] was inactive.
As for `CN[C@H](CC(C)C)C(=O)N[C@H]1C(=O)N[C@@H](CC(N)=O)C(=O)N[C@H]2C(=O)N[C@H]3C(=O)N[C@H](C(=O)N[C@H](C(=O)O)c4cc(O)cc(O)c4-c4cc3ccc4O)[C@H](O)c3ccc(c(Cl)c3)Oc3cc2cc(c3O[C@@H]2O[C@H](CO)[C@@H](O)[C@H](O)[C@H]2O[C@H]2C[C@](C)(N)[C@H](O)[C@H](C)O2)Oc2ccc(cc2Cl)[C@H]1O` [VANCOMYCIN], the IC50 at 24 h in data set [1] is over 64 µg/mL. Further, the MIC in the data set on Pseudomonas aeruginosa [7], in the data set with Pseudomonas aeruginosa [15], in the data set with Acinetobacter baumannii [17] and in the data set on Acinetobacter baumannii [18] was over 64 µg/mL in each case. In data set [12], the Activity result is “Non-Toxic”.
Regarding `O=C(N[C@H](CO)[C@H](O)c1ccc([N+](=O)[O-])cc1)C(Cl)Cl` [CHLORAMPHENICOL], the IC50 at 24 h in [1] was over 64 µg/mL. Also, the MIC with Staphylococcus aureus [4], in the data set with Staphylococcus aureus [6], with Pseudomonas aeruginosa [7], in the data set with Staphylococcus aureus [8], in the data set on Staphylococcus aureus [9] and in the data set with Pseudomonas aeruginosa [15] was over 64 µg/mL each time. In addition, the MIC in the data set with Acinetobacter baumannii [17] and in the data set on Acinetobacter baumannii [18] was over 64 µg/mL throughout. In addition, the result in the data set on Staphylococcus aureus [20] was inactive. For the same molecule, the Activity result in data set [12] is listed as “Non-Toxic”.
Take `Br.O=C(CCCCCCCCC[P+](c1ccc(F)cc1)(c1ccc(F)cc1)c1ccc(F)cc1)OC[C@H](NC(=O)C(Cl)Cl)[C@H](O)c1ccc([N+](=O)[O-])cc1`: the half-inhibitory concentration (IC50) at 24 h in [1] is over 64 µg/mL. Further, the Activity entry is “Non-Toxic” with HEK-293T; “Non-Toxic” with Erythrocyte [21]; “Dose-Dependent Effect” in the data set with Cell membrane [22]; “Non-Toxic” in data set [23]; 100% in the data set with Staphylococcus aureus [26]. For the same molecule, the MIC was 1 µg/mL with Staphylococcus aureus [4]; 2 µg/mL in the data set with Staphylococcus aureus [6]; over 64 µg/mL in the data set on Pseudomonas aeruginosa [7]; 2 µg/mL in the data set on Staphylococcus aureus [8]; 2 µg/mL in the data set on Staphylococcus aureus [9]; over 64 µg/mL in the data set on Pseudomonas aeruginosa [15]. For the same molecule, the MIC with Acinetobacter baumannii [17] and in the data set on Acinetobacter baumannii [18] was over 64 µg/mL in each case. Further, the result in the data set with Staphylococcus aureus [5], with Staphylococcus aureus [10] and in the data set with Staphylococcus aureus [20] was inactive. The result in the data set on Cell membrane [24], in the data set with Cell membrane [25] and in the data set on Staphylococcus aureus [19] was Active.

In general, IC50 refers to the concentration needed to halve the response being measured. As a reminder, the MIC is the lowest concentration found to suppress growth.

The values are drawn from ChEMBL document CHEMBL5537147, “Development of membrane-targeting TPP+-chloramphenicol conjugates to combat methicillin-resistant staphylococcus aureus (MRSA) infections” (Eur J Med Chem, 2024).
